# Laboratory results from patent US7994121B2, “Stable analogs of peptide and polypeptide therapeutics” (Trustees of Tufts College, priority 2003, dated 2011).
# “Also recorded” adds a separate entry of the source. Like-named read-outs stand apart in the source and are kept apart here. Square brackets hold non-standard residues; d marks the D form. Ends that are not written are not given here. Peptide text beside a SMILES is read from it. Tle = CC(C)(C)[C@H](N)C(=O)O
# Assays:
# human DPP IV = human DPP IV (Homo sapiens, UniProt P27487); assay: Cleavage/degradation by DPP IV, HPLC/MS; format: in vitro ADME; settings: for resistance to cleavage by DPP IV: in comparison to native GLP-1; for degradation by human DPP IV: two hours of treatment with human DPP IV, versus untreated peptide
# Experimental: However, it is most desirable to produce peptide analogs that are not only resistant to proteolysis, but also retain all or much of the biological activity of the native peptide. Accordingly, we conducted a series of experiments to ascertain whether these GLP-1 analogs which display robust resistance to degradation by DPP IV also retain biological activities of native GLP-1
# TLE-modified GLP-1 analog was treated with human DPP IV for two hours, and degradation of the analog over time was compared to that of analog in the absence of DPP IV.
# thrombin = thrombin (Homo sapiens, UniProt P00734); assay: Thrombin digestion of model peptide, C18 HPLC/MS; format: in vitro ADME; settings: 4 hours at 23° C., 10 nM thrombin, 0.1 M HEPES pH 8
# Experimental: Briefly, the peptide […] (SEQ ID NO: 31) is a model substrate for thrombin. Thrombin cleaves after the arginine residue. Accordingly, the serine residue of this model peptide is the P′1 positions. WALAPR^↓SFA
# To compare digestion of the model peptide analog by thrombin with that of the native model peptide, peptides were digested for 4 hours at 23° C. with 10 nM thrombin in 0.1 M HEPES pH 8, 0.14 M NaCl, 5 mM CaCl2, 0.5% PEG6000. Following digestion, C18 reverse phase HPLC of the digests was compared to the undigested peptides, and the mass spectra of the major peaks are shown for each chromatogram in FIG. 7.
# [1] = cited from earlier work
# Chain of human DPP IV (P27487 whole entry): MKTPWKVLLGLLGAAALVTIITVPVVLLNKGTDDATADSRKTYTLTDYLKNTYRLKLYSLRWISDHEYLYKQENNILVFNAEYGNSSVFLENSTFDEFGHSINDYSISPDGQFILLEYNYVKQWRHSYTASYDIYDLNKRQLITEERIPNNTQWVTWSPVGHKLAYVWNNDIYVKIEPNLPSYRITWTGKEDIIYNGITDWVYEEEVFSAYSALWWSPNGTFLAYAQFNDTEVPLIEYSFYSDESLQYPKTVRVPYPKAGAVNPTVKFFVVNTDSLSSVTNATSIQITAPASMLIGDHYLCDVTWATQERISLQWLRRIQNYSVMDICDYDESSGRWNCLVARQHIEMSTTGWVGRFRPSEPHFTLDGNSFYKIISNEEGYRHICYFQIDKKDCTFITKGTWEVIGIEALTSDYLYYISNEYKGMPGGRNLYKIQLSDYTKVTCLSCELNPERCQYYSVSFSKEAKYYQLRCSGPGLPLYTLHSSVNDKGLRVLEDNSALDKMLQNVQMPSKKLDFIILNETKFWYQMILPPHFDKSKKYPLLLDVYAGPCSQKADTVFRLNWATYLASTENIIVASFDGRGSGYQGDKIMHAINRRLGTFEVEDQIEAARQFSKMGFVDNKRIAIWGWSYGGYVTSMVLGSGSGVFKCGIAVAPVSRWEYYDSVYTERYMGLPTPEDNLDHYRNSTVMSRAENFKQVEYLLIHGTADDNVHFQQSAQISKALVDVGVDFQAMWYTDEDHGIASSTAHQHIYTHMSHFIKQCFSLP
molecule,measurement,setting,value
CC[C@H](C)[C@H](NC(=O)[C@H](Cc1ccccc1)NC(=O)[C@H](CCC(=O)O)NC(=O)[C@H](CCCCN)NC(=O)[C@H](C)NC(=O)[C@H](C)NC(=O)[C@H](CCC(N)=O)NC(=O)CNC(=O)[C@H](CCC(=O)O)NC(=O)[C@H](CC(C)C)NC(=O)[C@H](Cc1ccc(O)cc1)NC(=O)[C@H](CO)NC(=O)[C@H](CO)NC(=O)[C@@H](NC(=O)[C@H](CC(=O)O)NC(=O)[C@H](CO)NC(=O)[C@@H](NC(=O)[C@H](Cc1ccccc1)NC(=O)[C@@H](NC(=O)CNC(=O)C(NC(=O)[C@H](C)NC(=O)[C@@H](N)Cc1c[nH]cn1)C(C)(C)C(=O)O)[C@@H](C)O)[C@@H](C)O)C(C)C)C(=O)N[C@@H](C)C(=O)N[C@@H](Cc1c[nH]c2ccccc12)C(=O)N[C@@H](CC(C)C)C(=O)N[C@H](C(=O)N[C@@H](CCCCN)C(=O)NCC(=O)N[C@@H](CCCNC(=N)N)C(=O)NCC(=O)O)C(C)C (stereo partly drawn) [GLP-1 (3DMA)],resistance to cleavage by DPP IV,human DPP IV,resistant to cleavage by DPP IV
"CC(C)C[C@H](NC(=O)[C@H](C)NC(=O)[C@@H](N)Cc1c[nH]c2ccccc12)C(=O)N[C@@H](C)C(=O)N1CCC[C@H]1C(=O)N[C@@H](CCCNC(=N)N)C(=O)N[C@H](C(=O)N[C@@H](Cc1ccccc1)C(=O)N[C@@H](C)C(=O)O)C(C)(C)C [TLE substituted peptide analog, WALAPRXFA] (H-WALAPR[Tle]FA-OH)",cleavage by thrombin,thrombin,not cleaved by thrombin
CC[C@H](C)[C@H](NC(=O)[C@H](Cc1ccccc1)NC(=O)[C@H](CCC(=O)O)NC(=O)[C@H](CCCCN)NC(=O)[C@H](C)NC(=O)[C@H](C)NC(=O)[C@H](CCC(N)=O)NC(=O)CNC(=O)[C@H](CCC(=O)O)NC(=O)[C@H](CC(C)C)NC(=O)[C@H](Cc1ccc(O)cc1)NC(=O)[C@H](CO)NC(=O)[C@H](CO)NC(=O)[C@@H](NC(=O)[C@H](CC(=O)O)NC(=O)[C@H](CO)NC(=O)[C@@H](NC(=O)[C@H](Cc1ccccc1)NC(=O)[C@@H](NC(=O)CNC(=O)[C@@H](NC(=O)[C@H](C)NC(=O)[C@@H](N)Cc1c[nH]cn1)C(C)(C)C)[C@@H](C)O)[C@@H](C)O)C(C)C)C(=O)N[C@@H](C)C(=O)N[C@@H](Cc1c[nH]c2ccccc12)C(=O)N[C@@H](CC(C)C)C(=O)N[C@H](C(=O)N[C@@H](CCCCN)C(=O)NCC(=O)N[C@@H](CCCNC(=N)N)C(=O)NCC(=O)O)C(C)C [TLE-modified GLP-1],degradation by human DPP IV,human DPP IV,resistant to degradation by DPP IV
GLP-1 (BM): GLP1(7-37) analog wherein the P′1 glutamic acid is substituted by 3-butyl-methyl-glycine (HAXGTFTSDVSSYLEGQAAKEFIAWLVKGRG; non-natural residues),resistance to cleavage by DPP IV,human DPP IV,resistant to cleavage by DPP IV
GLP-1: exogenous GLP-1 given subcutaneously or intravenously to subjects (Deacon et al.); metabolite co-elutes with GLP-I(9-36) amide,degradation of infused GLP-1,[1]; intravenous infusion,extensively degraded
same,metabolite share of the increase in plasma immunoreactivity (CO2H-terminal RIA),"[1]; thirty minutes after subcutaneous GLP-1, diabetic patients (n is 8)",88.5+1.9%
same,metabolite share of the increase in plasma immunoreactivity (CO2H-terminal RIA),"[1]; thirty minutes after subcutaneous GLP-1, healthy subjects (n=8)",78.4+3.2%
HAE GTFTSDVSSY LEGQAAKEFI AWLVKGRG [GLP-1 (7-37)],degradation by human DPP IV,human DPP IV,time dependent degradation; also recorded: time dependent loss of peptide
WALAPRSFA [unmodified peptide],cleavage by thrombin,thrombin,efficiently cleaved by thrombin
